Experimental findings from patent publication US20200270557A1, “HUMAN IN VITRO ORTHOTOPIC AND METASTATIC MODELS OF CANCER” (PRESIDENT AND FELLOWS OF HARVARD COLLEGE, priority 2017, published 2020) are described below.

The subject of assay [1] is H1975 NSCLC cells. Description: growth inhibition of H1975 NSCLC cells cultured alone under conventional static culture conditions. The format is cell-based. To be noted: Homo sapiens, NCI-H1975, read-out: half-maximal inhibition.
Assay [2] concerns H1975 NSCLC cells. Description: NSCLC cancer cell growth in microfluidic device (orthotopic lung model) with or without breathing motions. The format is cell-based, human. To be noted: H1975 NSCLC cells cultured within the microfluidic devices.
Protocol: Primary human lung microvascular endothelial cells were plated the same way as discussed above, except that these cells were plated first with endothelial growth medium. The GFP-labeled NSCLC tumor cells and primary alveolar epithelial cells were then plated using the same method as described above. The following day, the upper microchannel was perfused with epithelial growth medium containing 1 μM dexamethasone and flushed manually for 2-3 days, after which the medium in the upper microchannel was removed to create an air-liquid interface, while the lower microchannel was continuously perfused with air-liquid interface medium at 60 μL/hr. […]
Analysis of cancer cell growth and responses of cancer cells can be monitored visually through the microfluidic device. As discussed above, cancer cell growth can be monitored non-invasively using fluorescence microscopy, such as with a Zeiss TIRF/LSM 710 confocal microscopy and Hamamatsu ImagEM-1K BackThinned EMCCD camera. The number of GFP-labeled cancer cells can be estimated using fluorescence microscopy based on a standard curve generated experimentally that correlates cell density to GFP fluorescence intensity. […]
The subject of the next assay is c-Met. Description: c-Met expression and phosphorylation in NSCLC cells under cyclic mechanical strain. The format is cell-based, human. An excerpt:
Further, many patients with the EGFR […]/T790M mutation who develop resistance to 3rd generation TKIs overexpress the tyrosine protein kinase c-Met, and c-MET overexpression has been implicated as a mechanism of resistance to TKI therapy in NSCLC patients. […] Thus, mechanical breathing motions also may suppress NSCLC cell response to TKI therapy by altering this signaling pathway.

In the case of `C#Cc1cccc(Nc2ncnc3cc(OCCOC)c(OCCOC)cc23)c1` [erlotinib], the IC50 in the assay with H1975 NSCLC cells [1] is roughly 100 nM. The “response of NSCLC cells to TKIs” value in the assay with H1975 NSCLC cells [2] is reported as “responded”.

For `C=CC(=O)Nc1cccc(Nc2nc(Nc3ccc(N4CCN(C(C)=O)CC4)cc3OC)ncc2C(F)(F)F)c1` [rociletinib], the IC50 in the assay on H1975 NSCLC cells [1] was greater than 1000 nM. Moreover, the “effect of increasing dose on expression and phosphorylation of c-Met” value in the assay with c-Met is given as “no significant effect”.
